Biological target: T1, recombinant rat AR LBD (Rattus norvegicus, UniProt P15207)
T1 construct: recombinant rat AR LBD
T1 sequence (P15207 651-882 limits assumed): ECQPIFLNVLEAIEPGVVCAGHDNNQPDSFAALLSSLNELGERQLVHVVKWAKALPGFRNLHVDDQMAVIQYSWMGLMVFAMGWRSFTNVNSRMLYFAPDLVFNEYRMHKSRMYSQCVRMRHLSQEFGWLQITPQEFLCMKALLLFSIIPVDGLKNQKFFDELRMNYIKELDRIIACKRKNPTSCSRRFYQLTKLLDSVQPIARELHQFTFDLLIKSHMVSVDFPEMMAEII
Test: competition fluorescence polarization binding assay
Conditions: relative binding affinity; ratio of Kd of test compound to Kd of DHT multiplied by 100
Experimental: Binding affinity of the synthesized ligands was evaluated by competition fluorescence polarization assay using recombinant rat AR LBD, and the results summarized in Table 1. All ligands with a bulky right-hand extension, such as compounds 18-20 in FIG. 5, performed poorly in this assay, with even the best compounds binding AR only weakly. […] In Table 1, RBA stands for relative binding affinity, and is defined as the ratio of Kd of the test compound to Kd of DHT multiplied by 100.

Compound	RBA (DHT = 100)
CC12Cc3cn[nH]c3C=C1CCCC2CCc1ccc(CO)cc1 (centres unmarked) [Compound 18, {4-[2-(4a-Methyl-4,4a,5,6,7,8-hexahydro-1H-benzo[f]indazol-5-yl)-ethyl]-phenyl}-methanol]	<0.1
CC12Cc3cnoc3C=C1CCCC2CCc1ccc(CO)cc1 (centres unmarked) [Compound 19, {4-[2-(4a-Methyl-4,4a,5,6,7,8-hexahydro-naphtho[2,3-d]isoxazol-5-yl)-ethyl]-phenyl}-methanol]	<0.1

The next lines start with the values.

RBA (DHT = 100)	Compound
1	CC12Cc3cn[nH]c3C=C1CCCC2CCCO (stereo not drawn) [Compound 12, 3-(4α-Methyl-4,4α,5,6,7,8-hexahydro-1H-benzo[f]indazol-5-yl)propan-1-ol]
19	CC12Cc3cnn(-c4ccc(F)cc4)c3C=C1CCCC2CCCO (stereo not drawn) [Compound 16, 3-(1-[4-Fluorophenyl]-4α-Methyl-4,4α,5,6,7,8-hexahydro-1H-benzo[f]indazol-5-yl)propan-1-ol]
0.12	CC12Cc3cnn(-c4ccc(F)cc4)c3C=C1CCCC2CCc1ccc(CO)cc1 (centres unmarked) [Compound 20]
